{"source": "patent US20230414700A1", "about": "“TG2 INHIBITORS FOR IMPROVING MUCOCILIARY CLEARANCE IN RESPIRATORY DISEASES” (INSERM (INSTITUT NATIONAL DE LA SANTÉ ET DE LA RECHERCHE …, priority 2020, published 2023)", "key": {"[1]": {"system": "ALI-regenerated hypersecretory epithelia", "experiment": "Mucus (MUC5AC) tethering to the apical surface after extensive apical washes with PBS, immunofluorescence", "assay_type": "cell-based", "conditions": "IL-13-induced hypersecretory bronchial epithelium reconstituted in vitro at air-liquid interface; n=2", "text": "Whole-mount images represent stacks from optical sections done through the mucus (parallel to the plane of the epithelium). epi, epithelium. Extracellular mucus was quantified after beta-tubulin staining to delineate cell apex, and expressed as sum intensities (in […]) (n=2).\n(§1) Methods: The bronchial epithelium from asthmatic patients, cystic fibrosis or control subjects was reconstituted in vitro by culturing cells at the air-liquid interface. Hyper secretory differentiation was modeled by exposing control bronchial epithelial to IL-13. Expression of TG2 and MUC5AC was assessed by RT-qPCR and immunohistochemistry/immunofluorescence. Mucin modification by TG2 was evaluated by BAP incorporation and Western-blot analysis. Mucus tethering to the apical surface was studied by detecting MUC5AC after extensive apical washes with PBS. The role of TG2 was evaluated using the pharmacological inhibitor ZDON. Mucociliary clearance was evaluated by video microscopy using fluorescent microspheres."}, "[2]": {"system": "IL-13-stimulated hypersecretory epithelia", "experiment": "Mucociliary clearance by video microscopy using fluorescent microspheres", "assay_type": "cell-based", "conditions": "30-second image sequence, n=2", "experimental": "The final image from a 30-second image sequence (every 5 ms) is shown (ImageJ, Z Project). B: Quantification of travelled distance (ImageJ, Plugin MTrack3). Median values are shown. n=2.\nas §1"}}, "note": "“Also recorded” adds a separate entry of the source. Square brackets hold non-standard residues; d marks the D form. Peptide text beside a SMILES is read from it. * marks the point of attachment. ξ: configuration not given here. DON = [N-]=[N+]=CC(=O)CC[C@H](N)C(=O)O; Ile(3ξ) = CCC(C)[C@H](N)C(=O)O; Cbz = O=C(OCc1ccccc1)*", "data": [{"smiles": "CCC(C)[C@H](NC(=O)[C@H](CCC(N)=O)NC(=O)[C@H](CCC(=O)C=[N+]=[N-])NC(=O)OCc1ccccc1)C(=O)N[C@H](C(=O)OC)C(C)C", "note": "(some centres unmarked) [ZDON] (Cbz-[DON]Q[Ile(3ξ)]V-OMe)", "values": [{"measurement": "MUC5AC tethering to the apical surface of hypersecretory epithelia", "setting": "[1]", "result": "decreases MUC5AC tethering; also recorded: blocked"}, {"measurement": "Mucociliary clearance (travelled distance of fluorescent microspheres)", "setting": "[2]", "result": "tends to ameliorate mucociliary clearance"}]}]}
